The text below walks through data of patent EP0276057B1, “Piperazinylpyrimidines as beta-adrenergic receptor blocking agents” (Merck & Co., Inc., priority 1987, dated 1988).

Each structure is given as a SMILES string.

In one assay the target is ß1 (Homo sapiens, UniProt P08588). In words: Block of ligand binding to β-adrenergic receptor, ß1. As to conditions: for IC50: read-out: Concentration (nM) To Block Binding of Ligand by 50% ß1; for inhibition at 10 µM: at 10,000 nM, 50% blockade not achieved at reasonable concentrations, read-out: % blocked at nM concentration shown ß1.
Chain of ß1 (P08588 whole entry): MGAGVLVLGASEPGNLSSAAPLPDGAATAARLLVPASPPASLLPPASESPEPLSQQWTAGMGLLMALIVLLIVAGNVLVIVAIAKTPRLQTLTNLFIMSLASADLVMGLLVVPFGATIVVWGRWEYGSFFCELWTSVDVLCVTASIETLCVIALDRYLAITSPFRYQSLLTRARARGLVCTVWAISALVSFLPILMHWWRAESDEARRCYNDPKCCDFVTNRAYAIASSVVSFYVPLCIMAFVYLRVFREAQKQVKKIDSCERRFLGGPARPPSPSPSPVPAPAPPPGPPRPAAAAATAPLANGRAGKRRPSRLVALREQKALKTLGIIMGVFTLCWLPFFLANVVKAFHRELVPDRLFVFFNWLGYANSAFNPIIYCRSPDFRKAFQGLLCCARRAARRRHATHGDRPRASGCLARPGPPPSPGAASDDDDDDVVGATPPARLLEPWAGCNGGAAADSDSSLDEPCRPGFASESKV
The target of a further assay is ß2 (Homo sapiens, UniProt P07550). In words: Block of ligand binding to β-adrenergic receptor, ß2. As to conditions: for IC50: read-out: Concentration (nM) To Block Binding of Ligand by 50% ß2; for inhibition at 10 µM: at 10,000 nM, 50% blockade not achieved at reasonable concentrations, read-out: % blocked at nM concentration shown ß2.
Chain of ß2 (P07550 whole entry): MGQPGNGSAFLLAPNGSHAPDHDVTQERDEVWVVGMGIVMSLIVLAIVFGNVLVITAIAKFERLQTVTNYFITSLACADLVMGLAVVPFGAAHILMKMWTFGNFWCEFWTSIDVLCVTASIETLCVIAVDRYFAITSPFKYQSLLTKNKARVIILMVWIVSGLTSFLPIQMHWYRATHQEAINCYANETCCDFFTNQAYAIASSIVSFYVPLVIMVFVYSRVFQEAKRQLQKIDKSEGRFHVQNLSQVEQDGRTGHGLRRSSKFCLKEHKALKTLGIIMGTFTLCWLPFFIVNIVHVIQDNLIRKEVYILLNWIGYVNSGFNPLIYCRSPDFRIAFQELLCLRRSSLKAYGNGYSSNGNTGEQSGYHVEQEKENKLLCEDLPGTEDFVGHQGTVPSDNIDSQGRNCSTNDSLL

`CCc1nc(N2CCN(C)CC2)c2sccc2n1`: the figures for the IC50 at ß1 and on ß2 were 2400 nM and 1040 nM, respectively.

As for `CCCCc1nc2c(c(N3CCN(C)CC3)n1)SCCC2`, the IC50 at ß1 amounted to 4300 nM; at ß2 it was 4800 nM.

Take `CCN1CCN(c2nc(C)nc3c2SCCC3)CC1`: at ß1, the inhibition at 10 µM amounted to 3%. For the same compound, the IC50 on ß2 was 27000 nM.

Turning to `Cc1nc2c(c(N3CCN(Cc4ccccc4)CC3)n1)SCCC2`, the inhibition at 10 µM at ß1 and at ß2 was 0% in each case.

On to `Cc1nc2c(c(N3CCN(C)CC3)n1)CSC2`, for which the inhibition at 10 µM on ß1 was determined as 15%; at ß2, 24%.

As to `Cc1nc2c(c(N3CCN(C4CC4)CC3)n1)SCCC2`, the inhibition at 10 µM on ß1 is 6%; on ß2, 8%.

`CCc1nc(N2CCNCC2)c2sccc2n1` [R^1 = -C2H5, R^2 = H (the 2nd table r0 drawing)]: the IC50 at ß1 amounted to 300 nM; on ß2, 140 nM.

As for `Cc1nc2c(c(N3CCNCC3)n1)SCCC2` [R^1 = -CH3, R^2 = H (the 1st table r1 drawing)], the IC50 came to 680 nM at ß1 and 314 nM at ß2.

Take `Cc1nc2c(c(N3CCNCC3)n1)CSC2` [R^1 = -CH3, R^2 = H (the 1st table r11 drawing)]: the IC50 on ß1 came out at 820 nM; at ß2, 340 nM.
